Structures can show the parent of a compound that is named as a salt.

These results are taken from patent US4591573A (priority 1983, dated 1986).

For data set [1], the system named is antibody to L-hyoscyamine (antiserum). In kind it is binding, New Zealand white rabbit.
In the next data set the test system is frogs. The conditions noted are these: in vivo; cited from earlier work.
For data set [2] the following is noted: in vivo; cited from earlier work.
The subject of data set [3] is peripheral parasympathetic nervous system. The settings on record: in vivo; cited from earlier work.
Another data set relates to children (flush). The conditions noted are these: in vivo, po; cited from earlier work.
The subject of data set [4] is antibody of Wurzeburger radioimmunoassay. The settings on record: cited from earlier work.
Another data set has as its system mice. The conditions noted are these: mouse, in vivo; cited from earlier work.
Data set [5] deals with antibody of Virtanen radioimmunoassay. The settings on record: cited from earlier work.
The conditions of data set [6]: in vivo; cited from earlier work. The source holds these as a separate data set.
In another data set the test system is patients. The conditions noted are these: human, in vivo; cited from earlier work.
A further data set concerns spinal cord. The settings on record: dog, in vivo; cited from earlier work.
A further data set has as its system human eyes. The conditions noted are these: in vivo; cited from earlier work.

In the case of `O=C(O)C(CO)c1ccccc1` (racemic) [Tropic Acid, dl-tropic acid], in [1], the “% Cross-reactivity” value came to 0% and the “recognition by / cross-reaction with the antibody” value (“recognition by / cross-reaction” for short) is reported as “did not cross-react with the antibody”.
For the compound `CN1[C@@H]2CC[C@H]1C[C@@H](OC(=O)[C@@H](CO)c1ccccc1)C2` [D-hyoscyamine], the “effect on spinal cord” value with frogs is “an excitant to the spinal cord”. Besides, the “rate of destruction compared with L-form” value in [2] was “destroyed more slowly than the L-form”. Further, the “peripheral activity” value in [3] is “peripherally inactive”. Besides, the “quantity required for flush, as multiple” value in the data set with children (flush) is reported as 20-40 times. The “cross reaction / cross-reactivity with antibody of the invention” value in data set [1] was “about 37%”.
With `CN1[C@@H]2CC[C@H]1C[C@@H](OC(=O)C(CO)c1ccccc1)C2` (mixture of isomers) [atropine, D,L-hyoscyamine], the “Specificity (percentage of cross reactivity), Wurzeburger” value in data set [4] was 100%. For the same compound, the narcotization entry in the data set on mice is listed as “became narcotized”. Further, the “Specificity (cross-reactivity), Virtanen” value in data set [5] is on record as 100%. For the same compound, in [6], the cycloplegic effect result is reported as “exert a cycloplegic effect” and the effect on thermoregulation result is “hinders thermoregulation”. For the same compound, the complications entry in the data set on patients was “tachycardia, lethal arrhythmias and/or extension of the myocardial infarction”. Besides, the “effect on excitability of the spinal cord” value in the data set on spinal cord was “increase the excitability of the spinal cord”. In data set [1], the “% Cross-reactivity” value turned out to be 30%; the “Specificity (cross-reactivity), Verma” value was 37%; the “cross reaction / cross-reactivity with antibody of the invention” value is reported as “about 37%”; the “recognition by / cross-reaction” value is “recognized by the antibody”.
Consider `CN1[C@@H]2CC[C@H]1C[C@@H](OC(=O)[C@H](CO)c1ccccc1)C2` [L-hyoscyamine], for which the “Specificity (percentage of cross reactivity), Wurzeburger” value in data set [4] was 2.4%. Moreover, the narcotization result in the data set on mice is reported as “not affected”. In data set [5], the “Specificity (cross-reactivity), Virtanen” value is reported as 100%. Moreover, the “peripheral activity” value in data set [3] is on record as “the most potent parasympathetic antispasmodic known”. In the data set on spinal cord, the “effect on excitability of the spinal cord” value was “no effect”. The “quantity needed for flush” value in the data set on children (flush) was “Less quantities of L-hyoscyamine were needed than atropine”. In addition, in [1], the “% Cross-reactivity” value came to 100% and the “Specificity (cross-reactivity), Verma” value amounted to 100%.
Turning to `CN1[C@@H]2CC[C@H]1C[C@@H](OC(=O)C(CO)c1ccccc1)C2` (stereo partly drawn) [atropine sulfate], the “serum level of 1-hyoscyamine after 3 hours” value (after 3 hours) was “approximately 50%”. For the same compound, under “in vivo”, the serum level course result is on record as “steady decline curve after 40 minutes”.
Regarding `CN1[C@@H]2C[C@@H](OC(=O)[C@H](CO)c3ccccc3)C[C@H]1[C@@H]1O[C@@H]12` [Scopolamine, 1-scopolamine-HCl], in data set [1], the “% Cross-reactivity” value amounted to 0%.
As to `CN1[C@@H]2CC[C@H]1C[C@@H](O)C2` [Tropine, tropine], in data set [1], the “% Cross-reactivity” value was 0% and the “recognition by / cross-reaction” value is “did not cross-react with the antibody”.
Regarding `CN1[C@@H]2CC[C@H]1C[C@@H](OC(=O)C(O)c1ccccc1)C2` (mixture of isomers) [Homatropine, dl-homatropine-HBr], the “recognition by / cross-reaction” value in [1] is “recognized by the antibody”.
As to `CN1[C@@H]2CC[C@H]1C[C@@H](OC(=O)[C@H](CO)c1ccccc1)C2` [L-hyoscyamine sulphate], the “action on human eyes” value in the data set with human eyes is reported as 0.25% solution, can replace a 1% solution of atropine sulphate.
